Source: article PMC7343212, “Lactoferrin-Hexon Interactions Mediate CAR-Independent Adenovirus Infection of Human Respiratory Cells” (Journal of Virology, 2020)
Bridges are numbered along the chain shown (N, C = ends). Where no end group is shown, it is not given here.

Key:
HAdV-C5 hexon = target: T1, HAdV-C5 hexon (Human adenovirus C serotype 5, UniProt P04133); test: Surface plasmon resonance, HAdV-C5 hexon immobilized; format: binding; details: SPR Biacore T200, HAdV-C5 hexon on CM5 chip, analyte hLfcin1-49, 2-fold series 8 nM to 2 μM, HBS-EP+ pH 7.4, 25°C; average from three independent measurements
T1 construct: the top phase containing soluble viral components was recovered, and HAdV hexons were purified using monoclonal hexon antibodies; made in house; host or cells: A549 cells infected with wild-type HAdV-C5 (strain Ad75)
Description: Ten flasks of 70% confluent A549 cells were infected with HAdV-C5, HAdV-A31, or HAdV-B35. After initial inoculation, unbound virus was washed away, and approximately 30 ml of fresh medium (DMEM plus 20 mM HEPES [N-2-hydroxyethylpiperazine-NN-2-ethanesulfonic acid] plus 5% FBS) was added. At 48 h after infection, the cells were harvested by scraping into a small volume of DMEM, centrifuged, and resuspended in 6 ml of DMEM. The collected cells were lysed and the sample cleared by centrifugation. Virus was separated from soluble viral components by a CsCl gradient, as described previously ([59]). After ultracentrifugation, the top phase containing soluble viral components was recovered, and HAdV hexons were purified using monoclonal hexon antibodies (MAB8052) covalently attached to magnetic protein A/G beads (Pierce) using dimethyl pimelimidate (DMP) according to the manufacturer’s instructions. Bound hexons were washed three times using PBS to remove protein bound unspecifically, followed by elution in 50 μl of 200 mM glycine buffer at pH 2.5.
CM5 sensor chips, an amine-coupling kit, and HBS-EP+ buffer (10 mM HEPES, 150 mM NaCl, 3 mM EDTA, and 0.005% [vol/vol] surfactant P20 [pH 7.4]) were all purchased from GE Healthcare. All surface plasmon resonance (SPR) experiments were performed at 25°C in HBS-EP+ running buffer with adenovirus hexons immobilized on the sensor surface. […]

[1] = system: human respiratory epithelial A549 cells (HAdV-C5_GFP); test: HAdV-C5_GFP transduction of A549 cells; format: cell-based; details: at this concentration (2 μM), Fig. 1D
Excerpt: For all transduction experiments, GFP-expressing vectors were used. The HAdV_GFP vector was purchased from Vector Development Laboratory. All mutated HAdV-C5 vectors were generated in the laboratory of A. Plückthun at the University of Zürich using the AdEasy system (Agilent) to contain an internal ribosome entry site (IRES)-luciferase (Luc)-GFP cassette for detection of transduction. To investigate the role of integrins in transduction, HAdV-C5-IRES-GFP with an intact RGD loop in the penton base protein (-DMNDHAIRGDTFATRAE-) and HAdV-C5-ΔRGD-IRES-GFP (-DMNDTSRAEEKRAE-), known not to bind integrins ([40]), were generated. To determine the binding site for hLF/hLfcin on the hexon protein, hexon-mutated vectors were produced with HVR-1 of HAdV-C5 ([43]) replaced with the corresponding sequence of HAdV-A31, as well as a HAdV-C5 vector mutated in HVR-7 ([44]).
For experiments in A549 cells, 15,000 cells were seeded into a black 96-well plate with a transparent bottom. For experiments with CHO-K1 cells, 20,000 cells were seeded. After 24 h, HAdV-C5 vectors was complexed with 2 μM Lfcin or with ∼12 μM (1 mg/ml) of LF and, after 60 min, added to the cells on ice. The blocking of CAR using soluble HAdV-C5 fiber knob was performed using 10 μg/ml of recombinant knob. After another 60 min, unbound complex was washed away using Dulbecco’s modified Eagle’s medium (DMEM), followed by final addition of fresh medium. After 44 h, the cells were fixed using 4% paraformaldehyde (PFA) for 10 min, and GFP expression was imaged using a Trophos system (Luminy Biotech Entreprises). For the hexon chimeric viruses, transduction was instead quantified by measuring the luciferase activity at 44 h postinfection using a Pierce luciferase glow assay kit.

[2] = system: A549 cells (HAdV-C5 virions); test: 35S-labeled HAdV-C5 virion binding to A549 cells; format: cell-based, Human; details: at this concentration (2 μM), Fig. 1C
Description: A549 cells were detached using phosphate-buffered saline (PBS) plus 0.05% EDTA with slow rocking at 37°C. Once detached, the cells were centrifuged at 1,500 × g for 5 min, resuspended in growth medium to about 2 × 10^6 cells/ml, and allowed to recover at 37°C, slowly rocking to keep the cells in suspension. While recovering, the HAdV-Lfcin complex was set up. Lfcin (2 μM), or an equivalent volume of PBS, was mixed with ^35S-labeled HAdV (15,000 particles/cell) in medium and left on ice at 4°C for 60 min. After 60 min of recovery, the cells were counted, and 150,000 viable cells were added to each well of a 96-V-shaped-well plate and centrifuged for 5 min at 1,500 × g. Once pelleted, the cells were resuspended in the HAdV-Lfcin solution or in HAdV-PBS solution and incubated on ice for 60 min at 4°C. After 60 min, the cells were pelleted and washed once in medium and once in PBS before the addition of scintillation fluid and quantification using a Wallac 1450 Microbeta counter (Trilux).

T1 sequence (P04133 2-952 limits assumed): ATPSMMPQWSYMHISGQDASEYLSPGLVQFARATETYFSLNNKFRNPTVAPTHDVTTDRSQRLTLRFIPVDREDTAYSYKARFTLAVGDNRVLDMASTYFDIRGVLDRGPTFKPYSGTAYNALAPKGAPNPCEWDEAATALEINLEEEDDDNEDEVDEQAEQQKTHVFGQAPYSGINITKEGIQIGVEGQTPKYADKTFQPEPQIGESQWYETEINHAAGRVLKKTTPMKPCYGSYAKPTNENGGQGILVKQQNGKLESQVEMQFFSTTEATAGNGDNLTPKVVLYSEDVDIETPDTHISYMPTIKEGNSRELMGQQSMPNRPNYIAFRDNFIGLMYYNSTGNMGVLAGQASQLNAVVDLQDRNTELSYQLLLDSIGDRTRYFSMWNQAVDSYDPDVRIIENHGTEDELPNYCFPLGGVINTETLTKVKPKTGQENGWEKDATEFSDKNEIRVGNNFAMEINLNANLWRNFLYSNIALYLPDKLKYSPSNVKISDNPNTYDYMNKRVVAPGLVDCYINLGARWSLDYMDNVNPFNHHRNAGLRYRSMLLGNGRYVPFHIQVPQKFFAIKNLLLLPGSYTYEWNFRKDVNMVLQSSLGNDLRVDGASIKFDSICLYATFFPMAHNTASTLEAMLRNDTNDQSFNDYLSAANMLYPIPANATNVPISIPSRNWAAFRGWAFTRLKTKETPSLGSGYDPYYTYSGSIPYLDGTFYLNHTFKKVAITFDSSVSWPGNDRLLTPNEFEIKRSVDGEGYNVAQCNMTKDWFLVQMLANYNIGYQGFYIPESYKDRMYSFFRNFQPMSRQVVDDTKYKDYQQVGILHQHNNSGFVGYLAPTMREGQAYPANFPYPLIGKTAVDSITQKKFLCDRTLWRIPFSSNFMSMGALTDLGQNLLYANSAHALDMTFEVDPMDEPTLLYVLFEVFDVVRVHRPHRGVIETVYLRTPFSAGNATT

Row | Substance | Kd (HAdV-C5 hexon) [nM] | effect on HAdV-C5 transduction of A549 cells (in words) [1] | effect on HAdV-C5 binding to A549 cells (in words) [2]
1 | GRRRRSVQWCAVSQPEATKCFQWQRNMRKVRGPPVSCIKRDSPIQCIQA (disulfide 10-46, 20-37) [hLfcin1-49, human lactoferricin] | 730 ± 206 |  | 
2 | bLfcin17-31: bovine lactoferricin 17-31, standard solid-phase peptide synthesis (FKCRRWQWRMKKLGA; UniProt P24627 36-50, looked up, fragment) [reference compound] |  | no or little effect | no or little effect
3 | bLfcin17-42: bovine lactoferricin 17-42, purchased from the Center for Food Technology (FKCRRWQWRMKKLGAPSITCVRRAFA; ends and bridges not checked; cysteine pairing not given here; UniProt P24627 36-61, looked up, fragment) [reference compound] |  | no or little effect | no or little effect
4 | hLfcin18-42: human lactoferricin 18-42, solid-phase synthesis, cyclized in a two-step approach (KCFQWQRNMRKVRGPPVSCIKRDSP; not fully specified (bridges); also: cyclized in a two-step approach, kind and places not given here; UniProt P02788 37-61, looked up, fragment) |  | no or little effect | no or little effect
